Test results taken from patent US20170131285A1, “METHODS AND COMPOSITIONS FOR DIAGNOSING, MONITORING AND TREATING CANCER” (INSERM (Institut National de la Sante et de la Recherche …, priority 2014, published 2017).

How the values were obtained:
HCT116 cells = assay: HSP70-exosomes release from HCT116 cells treated with chemotherapy drugs (BLI, flow cytometry); format: cell-based, human; conditions: for amount of HSP70-exosomes released, dose-response / number of exosomes at higher doses: HCT116, 48 h; for amount of HSP70-exosomes released, dose-response: concentrations inducing a relatively low amount of cell death, flow cytometry; for number of exosomes at higher doses: doses inducing more than 40% cell death; for amount of HSP70-exosomes released, extent of increase: HCT116, toxic equivalent concentrations: oxaliplatin 5 μM, 5FU 3 μM, paclitaxel 50 nM, gemcitabin 10 μM, doxorubicin 2.5 μM, BLI
Procedure: FIG. 7: Effect of chemotherapy drugs on HSP70-exosomes release. A) Association curves of HSP70-exosomes isolated from the supernatant of HCT116 cells treated or not with oxaliplatin (5 μM), 5FU (3 μM), paclitaxel (50 nM), gemcitabin (10 μM) and doxorubicin ([…]). For the BLI, biotinylated A8 was immobilized on streptavidin sensor tips, n=3. B-C) HCT116 cells were treated with 5FU (3, 12, 24 and 36 μM) or oxaliplatin (5, 20, 40 and 60 μM) or doxorubicin (2.5, 10, and 20 μM) during 48 h. B) concentration of HSP70-exosomes released was measured by flow cytometry. C) measured apoptosis of HCT116 (7AAD and FITC-Annexin V).
Cells were cultured in medium depleted from serum-derived exosomes. Supernatants were collected from cell lines and sequentially centrifuged at 300 g for 10 minutes (4° C.) and at 2,000 g for 10 minutes. Then, exosomes were ultracentrifugated at 100,000 g for 70 minutes and washed in PBS. The same protocol was used for urines and blood samples. To evaluate exosome concentrations, we used a Nano Sight LM10 instrument (NanoSight, Amesbury, UK).
Protein-protein interaction experiments were conducted with an Octet Red instrument (ForteBio, USA). The ligand (A8 or TLR2) was biotinylated using EZ-Link NHS-PEG4-biotin (2 nM, 30 min, RT, Thermo Fisher Scientific, Germany) and immobilized on streptavidin sensors (96-well plate black, ForteBio, USA). Functionalized sensors were incubated in PBS (10 min) then incubated with exosomes (10^6, from cancer cells lines or normal cells or mice blood or human urine, for 120 or 600 seconds) or HSP70 (concentration range from 2.5 μM to 0.52 nM) or cmHSP70 (1/1,000). All sensorgrams were corrected for baseline drift by subtracting a control sensor exposed to running buffer only. Each KD was determined with a 1:1 stoichiometry model using a global fit with Rmax unlinked by sensor (ForteBio, Data analysis software version 7.1.0.89).
Exosomes from cancer cells lines or normal cells were bound to surfactant-free white aldehyde-sulfate latex beads ([…], Invitrogen) and concentrated at 1·10^4 beads/μL. Exosomes (30 μg) were incubated with the beads suspension for 15 min and then for 1 h at room temperature (RT) in final volume of 1 mL PBS. Beads were saturated with glycine (100 mM) for 30 minutes at RT and washed twice with PBS supplemented by 3% of FBS. Expression of membranar HSP70 on cells (normal and cancerous) was determined by flow cytometry using cmHSP70 antibody. MSC2 and HCT116 cell death was measured by PS exposure, cells stained with 7AAD and FITC-Annexin V conjugate. All analyses were performed on a LSRII flow cytometer (BD Bioscience).

B16F10 tumors = assay: B16F10 melanoma tumor model in C57/BL6 mice; format: in vivo, mouse; conditions: B16F10 tumor-bearing C57/BL6 mice, day 18; A0 or A8 3 mg/kg i.p. every two days; cisplatin single i.p. dose; 6 animals per group
Procedure: (§1) FIG. 5: A8 anti-tumor effect in mice is associated to MDSC and an immune anti-tumor response. (A) Mice were sc injected with B16F10 cells (5×10^4). On day 4, when tumor size was about 0.9 mm^3, animals were treated every two days until the end of the experiment with A0 or A8 (3 mg/kg dissolved in PBS, i.p injection). On day 5, half the animals were treated with cisplatin as a single dose (CDDP, i.p injection, 5 mg/kg). At day 18, the percentage of Gr1^+ CD11b^+ cells in the spleen collected from the different groups of mice was analyzed by flow cytometry (6 animals per group). As a MDCS negative control (Ctl) we used animals with no tumor cells injected. Right panels, a representative immunoblot of pSTAT3 in the MDSC (Gr1^+ CD11b^+ cells) isolated from the spleen of control animals (A0/PBS) or A8 and CDDP-treated animals (A8/CDDP). 14-3-3 is used as a loading control. (B) Analysis of tumor growth in the animals described above. Tumor size was measured every two days (6 animals per group). The white symbols represent the tumors from animals treated with cisplatin. (C) HSP70-exosomes isolated from B16F10 cells treated or not with cisplatin (CDDP, 25 μM) were determined by flow cytometry. Data represent the percentage of MFI+/−SD (n=3); *, p<0.05. (D) Association curves of HSP70-exosomes present in tumor-bearing mice sera treated or not with cisplatin (5 mg/kg). For the biolayer interferometry, biotinylated A8 was immobilized on streptavidin sensor tips. Curves represent mean values of triplicate measurements for each concentration (for each curve, the blood of 5 mice per group was pooled).
Exponentially growing B16F10 were harvested and resuspended in an RPMI medium without FBS. In vivo studies were performed in wild-type C57/BL6 mice (Charles River). B16F10 cells (5·10^4) were injected s.c. into the right flank Tumor volumes were evaluated every 2 days. Mice were treated with a control peptide aptamer A0 (3 mg/kg) or the HSP70 aptamer A8 (3 mg/kg) and half mice were treated with cisplatin (CDDP, […]). The animals were treated according to the guidelines of the Ministère de la Recherche et de la Technologie, France. All experiments were approved by the Comité d'Ethique de l'Université de Bourgogne.
MDSC cell isolation and analysis: Single-cell suspensions were prepared from spleens, and red cells were removed using ammonium chloride lysis buffer. Gr-1+ cells were isolated from spleens of different group of tumor-bearing mice or naive mice by labeling the cells with PE Cy7 Ab to Gr-1, then using magnetic PE Cy7 beads and LS MACS columns (Miltenyi Biotec). For extracellular staining of immune markers, single-cell suspensions were prepared. We incubated 1·10^6 freshly prepared cells with fluorochrome-coupled CD11b antibody (eBioscience). All events were acquired by a BD Bioscience LSR-II device and analyzed with FlowJo (Tree Star).
Animals were killed 18 days after cell injection. The site of tumor cell injection was resected and snap-frozen in liquid nitrogen. An immunohistochemical study of tumor-infiltrating inflammatory cells was performed on acetone-fixed 5 μm cryostat sections.
Next, we tested whether A8 was also able to block the immunosuppressive effect of MDSC in an in vivo cancer model. We performed subcutaneous injection at day 0 of B16F10 cells or media as a control in C57/BL6 mice. When tumor size reached about 0.9 mm^3 ([…]), mice were treated i.p. with a control peptide aptamer (A0) or A8 every two days until the end of the experiment. When indicated, half of the animals received cisplatin (CDDP, […], i.p.) as a single dose. Tumor growth was measured every two days. After 18 days, we analyzed the percentage of MDSC present in mice spleen (6 animals per group) by FACS using the specific markers Gr1^+ and CD11b^+ (FIG. 5A). […]

B16F10 cells = assay: HSP70-exosomes released by cultured B16F10 cells, flow cytometry; format: cell-based, mouse; conditions: cisplatin 25 μM, FACS
Procedure: as §1, with “The white symbols represent the tumors from animals treated with cisplatin.” left out, “Data represent the percentage of MFI+/−SD (n=3); *, p<0.05. (D) Association curves of HSP70-exosomes present in tumor-bearing mice sera treated or not with cisplatin (5 mg/kg). For the biolayer interferometry, biotinylated A8 was immobilized on streptavidin sensor tips. Curves represent mean values of triplicate measurements for each concentration (for each curve, the blood of 5 mice per group was pooled).” left out
B16F10, CT26, HCT116 and SW480 cells were cultured for 48 h or 24 h with cisplatin (CDDP) treatment in medium depleted from serum-derived exosomes by overnight centrifugation at 100,000 g. […] The concentration of exosomal proteins was quantified by Lowry assay (Biorad). […]

[1] = system: B16F10 tumor-bearing mice; assay: HSP70-exosomes in blood of tumor-bearing mice, A8-BLI protocol; format: in vivo, mouse; conditions: cisplatin 5 mg/kg, BLI with A8 ligand
MSC2 cells = assay: pSTAT3 western blot in MSC2 cells incubated with tumor-derived exosomes; format: cell-based; conditions: exosomes from CT26, B16F10, HCT116, SW480; 4 h and 6 h; aptamer 16 μM
Procedure: FIG. 4: A8 blocks the activation and proliferation of MSC2 cells. (A) IL-6 concentration was determined by ELISA in the supernatant of MSC2 cells incubated or not for 24 h with exosomes (from B16F10) in the presence or absence of A8. *, p<0.05, (n=3). (B) A representative image of a western blot showing the kinetics of STAT3 phosphorylation in MCS2 cells incubated or not with exosomes isolated from B16F10, CT26 or HCT116 cells together with a peptide control (TDE) or A8 (TDE/A8). 14-3-3 is used as a loading control. In the right panels, the amount of pSTAT3 was quantified by densitometric analysis. *, p<0.05, n=4.
Five millions of MSC2 cells were incubated with or without exosomes isolated from B16F10, CT26, HCT116 or SW480 cells in the presence or absence of A8 during 4 h or 6 h. Cells were isolated, lysed and analysed for pSTAT3 by western blotting.
MSC2 (2·10^6) or MDSC (2·10^6) were incubated alone or with exosomes (from B16F10, CT26, HCT116, SW480) in the absence or presence of A8 or A17 (16 μM) during 6 hours (RPMI 10% FBS, 5% of CO2 at 37° C.). Every 2 hours, […] cells were sampled and centrifugated 5 min at 300 g. Cells were lysed in lysis buffer (50 mM HEPES (pH 7.6), 150 mM NaCl, 5 mM EDTA, and 0.1% NP40 and anti-phosphatases, Roche). Then, pSTAT3 and STAT3 expression were analyzed by western blotting.

Compound	amount of HSP70-exosomes released, dose-response (HCT116 cells)	number of exosomes at higher doses (HCT116 cells)	amount of HSP70-exosomes released, extent of increase (HCT116 cells)	other results
O=c1[nH]cc(F)c(=O)[nH]1 [5-fluorouracil]	increased with drug concentration	drastically decreased	greater	
N.N.[Cl][Pt][Cl] [cisplatin]	increased with drug concentration	drastically decreased		percentage of MDSC (Gr1+ CD11b+) in spleen (B16F10 tumors): 9+/−0.9%; amount of HSP70-exosomes released by B16F10 cancer cells (B16F10 cells): strongly increased; amount of HSP70-exosomes in the blood [1]: much stronger
COc1cccc2c1C(=O)c1c(O)c3c(c(O)c1C2=O)C[C@@](O)(C(=O)CO)C[C@@H]3O[C@H]1C[C@H](N)[C@H](O)[C@H](C)O1 [doxorubicin]	increased with drug concentration	drastically decreased	lesser	
Nc1ccn([C@@H]2O[C@H](CO)[C@@H](O)C2(F)F)c(=O)n1 [gemcitabine]			induce an increase in the amount of HSP70-exosomes	
O=C1[O][Pt]2([NH][C@@H]3CCCC[C@H]3[NH]2)[O]C1=O [oxaliplatin]			greater	
CC(=O)O[C@H]1C(=O)[C@@]2(C)[C@H]([C@H](OC(=O)c3ccccc3)[C@]3(O)C[C@H](OC(=O)[C@H](O)[C@@H](NC(=O)c4ccccc4)c4ccccc4)C(C)=C1C3(C)C)[C@]1(OC(C)=O)CO[C@@H]1C[C@@H]2O [paclitaxel]			induce an increase in the amount of HSP70-exosomes	
YCAYYSPRHKTTF (Synthetic Aptamer A17) [reference compound]				STAT3 phosphorylation (activation) in MSC2 induced by tumor-derived exosomes (MSC2 cells): did not interfere
